Where “and” joins values, the source holds several entries; their conditions need not be identical. Equal values may be shown once. Read-outs that look alike come from different tables or passages of the source.
Key:
Assay in all cases: Chemosensitivity, 96 h continuous exposure, MTT assay
Type in all cases: cell-based, human
PSN1 = test system: PSN1
How it was run: (§1)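 Growth inhibition is measured by MTT after cells are dosed for 96 h without washout. The 50% growth-reduction concentration is then interpolated from the curves.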

HCT116 p53-/- = test system: HCT116 p53-/-
How it was run: (§2)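 Cells seeded at 2 × 10^3/well (GBM1 3 × 10^3/well) and left overnight at 37 °C, then exposed continuously for 96 h to a range of compound concentrations (final DMSO 0.2%). Viability read by MTT, absorbance at 540 nm; IC50 taken from dose-response curves as concentration reducing cell growth by 50%.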

H460 = test system: H460
How it was run: as §1

MiaPaCa2 = test system: MiaPaCa2
How it was run: as §2

ARPE-19 non-cancer cells = test system: ARPE-19 non-cancer cells
How it was run: as §2

HT-29 = test system: HT-29
How it was run: as §2

A549 = test system: A549
How it was run: as §2

O=P(O)(O)Oc1ccccc1.[Zn+2].[Zn+2].[Zn+2].c1ccc(-c2csc(NCCN(CCNc3nc(-c4ccccn4)cs3)CCNc3nc(-c4ccccn4)cs3)n2)nc1.c1ccc(-c2csc(NCCN(CCNc3nc(-c4ccccn4)cs3)CCNc3nc(-c4ccccn4)cs3)n2)nc1 [[L2Zn3(O3POPh)]4+]
Selectivity index (ARPE19) (PSN1; IC50 ARPE-19 / IC50 PSN1): 1338.66 | Selectivity index (MCF10A) (PSN1; IC50 MCF10A / IC50 PSN1): 304.38 | IC50 (PSN1; PSN1, mean of replicates, read-out: Mean IC50): 172 nM | IC50 (PSN1; PSN1, read-out: Mean IC50 values): 172 nM | IC50 (PSN1; PSN1, single replicate, read-out: IC50 values for each replicate): 90 nM and 171 nM and 256 nM | activity relative to [L2Zn3(PO4)]3+ or [L2Zn3]6+ (PSN1; PSN1 cell line, anion pre-encapsulated): significantly more active | Relative potency (+ anion to no anion), Ratio + anion:no anion (PSN1; ratio of IC50, PSN1): 0.04 | Selectivity indices relative to ARPE-19, Ratio + anion:no anion (PSN1; ratio of SI (ARPE-19), PSN1): 37.826 | Selectivity indices relative to MCF10A, Ratio + anion:no anion (PSN1; ratio of SI (MCF 10A), PSN1): 8.367 | IC50 (HCT116 p53-/-; HCT116 p53-/-, mean of replicates, read-out: Mean IC50): 85 nM | IC50 (HCT116 p53-/-; HCT116 p53-/-, read-out: Mean IC50 values): 85 nM | IC50 (HCT116 p53-/-; HCT116 p53-/-, single replicate, read-out: IC50 values for each replicate): 155 nM and 65 nM and 36 nM | Selectivity index (ARPE19) (HCT116 p53-/-; IC50 ARPE-19 / IC50 HCT116 p53-/-): 2708.82 | Selectivity index (MCF10A) (HCT116 p53-/-; IC50 MCF10A / IC50 HCT116 p53-/-): 615.92 | Relative potency (+ anion to no anion), Ratio + anion:no anion (HCT116 p53-/-; ratio of IC50, HCT116 p53-/-): 1.18 | Selectivity indices relative to ARPE-19, Ratio + anion:no anion (HCT116 p53-/-; ratio of SI (ARPE-19), HCT116 p53-/-): 1.240 | Selectivity indices relative to MCF10A, Ratio + anion:no anion (HCT116 p53-/-; ratio of SI (MCF 10A), HCT116 p53-/-): 0.274 | IC50 (H460; H460, mean of replicates, read-out: Mean IC50): 276 nM | IC50 (H460; H460, read-out: Mean IC50 values): 276 nM | IC50 (H460; H460, single replicate, read-out: IC50 values for each replicate): 263 nM and 517 nM and 187 nM and 138 nM | Selectivity index (ARPE19) (H460; IC50 ARPE-19 / IC50 H460): 834.24 | Selectivity index (MCF10A) (H460; IC50 MCF10A / IC50 H460): 189.68 | Relative potency (+ anion to no anion), Ratio + anion:no anion (H460; ratio of IC50, H460): 0.77 | Selectivity indices relative to ARPE-19, Ratio + anion:no anion (H460; ratio of SI (ARPE-19), H460): 1.910 | Selectivity index (ARPE19) (MiaPaCa2; IC50 ARPE-19 / IC50 MiaPaCa2): 4.94 | Selectivity index (MCF10A) (MiaPaCa2; IC50 MCF10A / IC50 MiaPaCa2): 1.12 | IC50 (MiaPaCa2; MiaPaCa2, mean of replicates, read-out: Mean IC50): 46600 nM | IC50 (MiaPaCa2; MiaPaCa2, read-out: Mean IC50 values): 46600 nM | IC50 (MiaPaCa2; MiaPaCa2, single replicate, read-out: IC50 values for each replicate): 45400 nM and 47800 nM and 46800 nM | Relative potency (+ anion to no anion), Ratio + anion:no anion (MiaPaCa2; ratio of IC50, MiaPaCa2): 0.79 | Selectivity indices relative to ARPE-19, Ratio + anion:no anion (MiaPaCa2; ratio of SI (ARPE-19), MiaPaCa2): 1.858 | Selectivity indices relative to MCF10A, Ratio + anion:no anion (MiaPaCa2; ratio of SI (MCF 10A), MiaPaCa2): 0.410 | IC50 (ARPE-19 non-cancer cells; ARPE-19, mean of replicates, read-out: Mean IC50): 230000 nM | IC50 (ARPE-19 non-cancer cells; ARPE-19, single replicate, read-out: IC50 values for each replicate): 273000 nM and 210000 nM and 208000 nM | IC50 (ARPE-19 non-cancer cells; ARPE-19 non-cancer, read-out: Mean IC50 values): 230000 nM | Relative potency (+ anion to no anion), Ratio + anion:no anion (ARPE-19 non-cancer cells; ratio of IC50, ARPE-19): 1.46 | IC50 (HT-29; HT29, mean of replicates, read-out: Mean IC50): 379 nM | IC50 (HT-29; HT29, read-out: Mean IC50 values): 379 nM | IC50 (HT-29; HT-29, single replicate, read-out: IC50 values for each replicate): 733 nM and 271 nM and 247 nM and 265 nM | Selectivity index (ARPE19) (HT-29; IC50 ARPE-19 / IC50 HT29): 607.52 | Selectivity index (MCF10A) (HT-29; IC50 MCF10A / IC50 HT29): 138.13 | Relative potency (+ anion to no anion), Ratio + anion:no anion (HT-29; ratio of IC50, HT29): 2.24 | Selectivity indices relative to ARPE-19, Ratio + anion:no anion (HT-29; ratio of SI (ARPE-19), HT29): 0.653 | Selectivity indices relative to MCF10A, Ratio + anion:no anion (HT-29; ratio of SI (MCF 10A), HT29): 0.144 | IC50 (A549; A549, mean of replicates, read-out: Mean IC50): 739 nM | IC50 (A549; A549, read-out: Mean IC50 values): 739 nM | IC50 (A549; A549, single replicate, read-out: IC50 values for each replicate): 651 nM and 791 nM and 774 nM | Selectivity index (ARPE19) (A549; IC50 ARPE-19 / IC50 A549): 311.57 | Selectivity index (MCF10A) (A549; IC50 MCF10A / IC50 A549): 70.84 | Relative potency (+ anion to no anion), Ratio + anion:no anion (A549; ratio of IC50, A549): 1.83 | Selectivity indices relative to ARPE-19, Ratio + anion:no anion (A549; ratio of SI (ARPE-19), A549): 0.798 | Selectivity indices relative to MCF10A, Ratio + anion:no anion (A549; ratio of SI (MCF 10A), A549): 0.177

Reference: paper PMC8222254, “Self-assembly of an anion receptor with metal-dependent kinase inhibition and potent in vitro anti-cancer properties” (Nature Communications, 2021)
